Measurements: patent US7329652B2, “Diaminotriazole compounds useful as protein kinase inhibitors” (Vertex Pharamaceuticals Incorporated, priority 2004, dated 2008)

Experiments:
JAK3 = biological target: T1, JAK3 (Homo sapiens, UniProt P52333); test: JAK3 inhibition assay (radiometric 33P filter assay); assay type: biochemical; settings: 1 μM poly(Glu)4Tyr, 5 μM ATP, 1 nM JAK3, 25° C.; read-out: JAK3 inhibition data (Ki)
T1 sequence (P52333 1-1124): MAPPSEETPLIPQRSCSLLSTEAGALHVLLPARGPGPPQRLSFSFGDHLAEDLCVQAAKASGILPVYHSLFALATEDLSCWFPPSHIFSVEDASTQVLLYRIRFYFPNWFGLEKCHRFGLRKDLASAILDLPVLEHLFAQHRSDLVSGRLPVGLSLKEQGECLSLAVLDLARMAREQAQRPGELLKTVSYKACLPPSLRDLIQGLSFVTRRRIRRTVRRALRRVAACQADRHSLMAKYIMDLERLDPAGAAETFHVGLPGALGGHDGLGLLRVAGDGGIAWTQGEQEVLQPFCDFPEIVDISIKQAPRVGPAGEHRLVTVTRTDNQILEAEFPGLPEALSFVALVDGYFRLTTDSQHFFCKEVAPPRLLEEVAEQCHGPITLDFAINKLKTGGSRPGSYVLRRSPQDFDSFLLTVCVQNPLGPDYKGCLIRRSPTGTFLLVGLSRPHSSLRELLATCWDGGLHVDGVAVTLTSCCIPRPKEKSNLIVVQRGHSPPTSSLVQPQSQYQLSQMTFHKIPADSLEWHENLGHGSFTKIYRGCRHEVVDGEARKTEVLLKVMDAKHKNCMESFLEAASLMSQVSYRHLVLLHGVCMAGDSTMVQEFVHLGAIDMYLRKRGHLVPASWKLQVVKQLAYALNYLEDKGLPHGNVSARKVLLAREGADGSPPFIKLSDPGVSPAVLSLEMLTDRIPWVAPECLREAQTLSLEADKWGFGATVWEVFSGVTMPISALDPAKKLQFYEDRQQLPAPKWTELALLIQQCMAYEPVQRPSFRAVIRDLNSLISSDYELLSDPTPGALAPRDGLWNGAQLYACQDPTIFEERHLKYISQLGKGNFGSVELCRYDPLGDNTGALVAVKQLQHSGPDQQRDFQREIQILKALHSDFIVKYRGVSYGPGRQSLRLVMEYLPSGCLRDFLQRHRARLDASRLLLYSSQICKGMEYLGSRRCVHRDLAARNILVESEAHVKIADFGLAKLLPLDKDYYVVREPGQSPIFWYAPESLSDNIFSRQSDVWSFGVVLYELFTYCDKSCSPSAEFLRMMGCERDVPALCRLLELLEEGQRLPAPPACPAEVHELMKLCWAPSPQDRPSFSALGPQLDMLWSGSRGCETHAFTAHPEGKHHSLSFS
How it was run: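 Final conditions were 1 nM JAK3, 5 μM ATP (200 uCi/μmole) and 1 μM poly(Glu)4Tyr in 100 mM HEPES pH 7.4, 10 mM MgCl2, 25 mM NaCl, 1 mM DTT and 0.01% BSA. After 20 min at 25 °C the reaction was stopped with TCA. 33P incorporation was counted after glass-fibre filtration.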

JAK-2 enzyme = JAK-2 enzyme (Homo sapiens, UniProt O60674); test: JAK2 inhibition assay (radiometric 33P filter assay); assay type: biochemical; settings: 15 μM poly(Glu)4Tyr, 12 μM ATP; read-out: JAK2 inhibition data (Ki)
How it was run: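 JAK-2 enzyme in 100 mM HEPES pH 7.4, 1 mM DTT, 10 mM MgCl2, 25 mM NaCl, 0.01% BSA, with final 12 μM [33P]ATP and 15 μM poly(Glu)4Tyr. Reactions ran 20 min at 25 °C and were stopped with TCA. 33P incorporation was counted after glass-fibre filtration.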

JAK-2 enzyme, sequence (O60674 whole entry, species assumed): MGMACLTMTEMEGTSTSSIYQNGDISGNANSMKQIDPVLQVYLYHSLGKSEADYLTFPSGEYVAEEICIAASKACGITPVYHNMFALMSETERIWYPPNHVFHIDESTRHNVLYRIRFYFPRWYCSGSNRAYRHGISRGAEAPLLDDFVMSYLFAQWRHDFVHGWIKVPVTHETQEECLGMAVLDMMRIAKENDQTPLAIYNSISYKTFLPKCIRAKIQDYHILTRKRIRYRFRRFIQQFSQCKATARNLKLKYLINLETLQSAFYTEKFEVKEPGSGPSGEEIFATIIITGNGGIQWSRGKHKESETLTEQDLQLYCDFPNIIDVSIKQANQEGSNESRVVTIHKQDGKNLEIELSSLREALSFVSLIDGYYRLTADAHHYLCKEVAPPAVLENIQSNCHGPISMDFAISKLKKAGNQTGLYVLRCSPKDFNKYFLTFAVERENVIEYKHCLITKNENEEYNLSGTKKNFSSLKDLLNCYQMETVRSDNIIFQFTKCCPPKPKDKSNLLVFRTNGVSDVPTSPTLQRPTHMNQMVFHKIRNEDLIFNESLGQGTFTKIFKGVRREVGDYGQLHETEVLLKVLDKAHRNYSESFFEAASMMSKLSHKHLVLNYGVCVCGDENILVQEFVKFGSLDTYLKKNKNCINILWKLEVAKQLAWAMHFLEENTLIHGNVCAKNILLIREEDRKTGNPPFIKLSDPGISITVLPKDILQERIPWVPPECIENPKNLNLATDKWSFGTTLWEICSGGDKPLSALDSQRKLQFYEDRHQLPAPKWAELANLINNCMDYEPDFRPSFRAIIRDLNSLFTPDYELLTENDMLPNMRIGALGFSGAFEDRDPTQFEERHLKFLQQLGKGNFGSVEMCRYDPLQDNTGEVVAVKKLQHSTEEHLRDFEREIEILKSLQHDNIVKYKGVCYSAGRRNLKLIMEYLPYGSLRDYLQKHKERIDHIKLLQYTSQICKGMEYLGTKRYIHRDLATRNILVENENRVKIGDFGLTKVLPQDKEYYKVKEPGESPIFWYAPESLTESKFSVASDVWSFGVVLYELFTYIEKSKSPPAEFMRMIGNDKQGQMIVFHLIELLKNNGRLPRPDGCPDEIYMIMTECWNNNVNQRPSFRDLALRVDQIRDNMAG

Ki (JAK3) [nM]	Ki (JAK-2 enzyme) [nM]	Compound
50 to 500	50 to 500	CCCCOC(=O)Nc1ccc(Nc2nc(N)n(-c3ccnc(N4CCCN(C(C)=O)CC4)c3)n2)cc1 [Compound 174]
50 to 500	50 to 500	CC(=O)N1CCCN(c2cc(-n3nc(Nc4ccc(NC(=O)OCC(C)C)cc4)nc3N)ccn2)CC1 [Compound 175]
50 to 500	50 to 500	CC(=O)N1CCCN(c2cc(-n3nc(Nc4ccc(NC(=O)OCC(C)(C)C)cc4)nc3N)ccn2)CC1 [Compound 176]
